Measured values published in ChEMBL document CHEMBL2157931, “Discovery of a novel series of inhibitors of lymphoid tyrosine phosphatase with activity in human T cells” (J Med Chem, 2011).
Activity calls are given as the source filed them. The rule behind the calls is not given here.

Tests used:
[1] = target: T1, Tyrosine-protein phosphatase non-receptor type 22 (Homo sapiens, UniProt Q9Y2R2)
T1 sequence (Q9Y2R2 whole entry): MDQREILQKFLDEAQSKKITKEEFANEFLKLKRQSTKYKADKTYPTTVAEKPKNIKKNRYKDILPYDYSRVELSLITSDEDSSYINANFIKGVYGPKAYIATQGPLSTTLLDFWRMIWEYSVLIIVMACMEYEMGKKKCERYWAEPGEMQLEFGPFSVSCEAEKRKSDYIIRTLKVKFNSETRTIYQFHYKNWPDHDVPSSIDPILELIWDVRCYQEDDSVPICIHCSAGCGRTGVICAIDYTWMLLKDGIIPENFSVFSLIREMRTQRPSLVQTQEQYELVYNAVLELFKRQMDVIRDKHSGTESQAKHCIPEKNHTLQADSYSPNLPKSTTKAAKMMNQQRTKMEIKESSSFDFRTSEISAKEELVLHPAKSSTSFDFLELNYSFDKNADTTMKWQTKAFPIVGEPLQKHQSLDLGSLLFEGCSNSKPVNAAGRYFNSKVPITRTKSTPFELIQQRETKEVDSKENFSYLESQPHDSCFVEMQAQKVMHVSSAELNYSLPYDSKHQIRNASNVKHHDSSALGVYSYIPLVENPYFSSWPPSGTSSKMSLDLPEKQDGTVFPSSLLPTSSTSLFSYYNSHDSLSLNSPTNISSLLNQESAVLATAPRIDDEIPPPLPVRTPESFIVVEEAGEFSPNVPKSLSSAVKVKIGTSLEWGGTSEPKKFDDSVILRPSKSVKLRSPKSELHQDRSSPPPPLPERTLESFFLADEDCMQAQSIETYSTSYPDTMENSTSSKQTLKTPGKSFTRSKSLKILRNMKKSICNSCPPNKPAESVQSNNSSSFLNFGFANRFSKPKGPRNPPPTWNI
Description: Inhibition of LYP expressed in Escherichia coli BL21 using pNPP substrate

[2] = target: T2, Tyrosine-protein phosphatase non-receptor type 7 (Homo sapiens, UniProt P35236)
T2 sequence (P35236 whole entry): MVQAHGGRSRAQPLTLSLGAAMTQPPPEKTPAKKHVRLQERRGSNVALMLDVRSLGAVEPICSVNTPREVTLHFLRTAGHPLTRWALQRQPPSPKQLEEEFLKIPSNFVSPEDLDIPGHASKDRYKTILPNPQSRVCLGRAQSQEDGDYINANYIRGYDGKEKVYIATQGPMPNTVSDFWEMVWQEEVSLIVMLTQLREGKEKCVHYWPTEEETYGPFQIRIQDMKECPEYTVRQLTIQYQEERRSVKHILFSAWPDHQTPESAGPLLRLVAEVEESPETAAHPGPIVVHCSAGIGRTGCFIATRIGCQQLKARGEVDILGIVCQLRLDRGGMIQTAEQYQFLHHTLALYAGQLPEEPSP
Description: Inhibition of HePTP expressed in Escherichia coli BL21 using pNPP substrate

[3] = target: T3, Tyrosine-protein phosphatase non-receptor type 12 (Homo sapiens, UniProt Q05209)
T3 sequence (Q05209 whole entry): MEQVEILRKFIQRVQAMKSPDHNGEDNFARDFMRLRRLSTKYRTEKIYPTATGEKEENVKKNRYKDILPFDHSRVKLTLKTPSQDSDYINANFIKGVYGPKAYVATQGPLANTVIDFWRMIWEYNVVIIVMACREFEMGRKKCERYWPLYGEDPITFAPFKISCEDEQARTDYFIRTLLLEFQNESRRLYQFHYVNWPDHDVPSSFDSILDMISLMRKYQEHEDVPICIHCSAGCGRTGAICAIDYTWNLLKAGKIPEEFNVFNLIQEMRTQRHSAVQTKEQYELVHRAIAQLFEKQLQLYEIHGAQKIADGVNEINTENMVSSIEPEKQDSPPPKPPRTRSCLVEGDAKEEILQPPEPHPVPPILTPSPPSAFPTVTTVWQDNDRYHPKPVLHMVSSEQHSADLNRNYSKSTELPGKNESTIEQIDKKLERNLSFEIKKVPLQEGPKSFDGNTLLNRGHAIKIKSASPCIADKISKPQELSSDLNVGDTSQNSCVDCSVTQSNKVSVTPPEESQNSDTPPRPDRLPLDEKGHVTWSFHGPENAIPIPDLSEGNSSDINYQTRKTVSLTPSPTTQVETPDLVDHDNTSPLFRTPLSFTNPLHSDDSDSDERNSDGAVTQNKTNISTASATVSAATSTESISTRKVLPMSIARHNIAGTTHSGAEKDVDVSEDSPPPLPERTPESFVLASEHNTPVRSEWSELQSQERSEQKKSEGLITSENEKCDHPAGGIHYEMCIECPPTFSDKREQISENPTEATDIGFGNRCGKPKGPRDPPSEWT
Description: Inhibition of PTP-PEST expressed in Escherichia coli BL21 using pNPP substrate

[4] = target: T4, Low molecular weight phosphotyrosine protein phosphatase (Homo sapiens, UniProt P24666)
T4 sequence (P24666 whole entry): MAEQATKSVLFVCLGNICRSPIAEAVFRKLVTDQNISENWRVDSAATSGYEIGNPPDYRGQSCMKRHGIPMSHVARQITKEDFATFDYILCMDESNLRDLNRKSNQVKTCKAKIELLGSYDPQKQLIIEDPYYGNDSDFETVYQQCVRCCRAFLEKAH
Description: Inhibition of LMPTP-A expressed in Escherichia coli BL21 using pNPP substrate

[5] = target: T1, Tyrosine-protein phosphatase non-receptor type 22; remark: listed apart in the source
[6] = target: T1, Tyrosine-protein phosphatase non-receptor type 22; remark: listed apart in the source
Description: Inhibition of LYP expressed in Escherichia coli BL21 using increasing levels of ARLIED-NEpYTAREG substrate

[7] = target: T5, Tyrosine-protein phosphatase non-receptor type 22 (Mus musculus) (UniProt P29352); test: Inhibition of LYP in anti-CD3 and antiCD28 antibody-stimulated C57BL/6 mouse CD8+ splenocytes assessed as increase in TCR signaling-stimulated CD69 expression at 100 uM incubated for 24 hrs (reference value: 5.3%); parameters: scale not given: the % may be the effect or the level left
T5 sequence (whole entry): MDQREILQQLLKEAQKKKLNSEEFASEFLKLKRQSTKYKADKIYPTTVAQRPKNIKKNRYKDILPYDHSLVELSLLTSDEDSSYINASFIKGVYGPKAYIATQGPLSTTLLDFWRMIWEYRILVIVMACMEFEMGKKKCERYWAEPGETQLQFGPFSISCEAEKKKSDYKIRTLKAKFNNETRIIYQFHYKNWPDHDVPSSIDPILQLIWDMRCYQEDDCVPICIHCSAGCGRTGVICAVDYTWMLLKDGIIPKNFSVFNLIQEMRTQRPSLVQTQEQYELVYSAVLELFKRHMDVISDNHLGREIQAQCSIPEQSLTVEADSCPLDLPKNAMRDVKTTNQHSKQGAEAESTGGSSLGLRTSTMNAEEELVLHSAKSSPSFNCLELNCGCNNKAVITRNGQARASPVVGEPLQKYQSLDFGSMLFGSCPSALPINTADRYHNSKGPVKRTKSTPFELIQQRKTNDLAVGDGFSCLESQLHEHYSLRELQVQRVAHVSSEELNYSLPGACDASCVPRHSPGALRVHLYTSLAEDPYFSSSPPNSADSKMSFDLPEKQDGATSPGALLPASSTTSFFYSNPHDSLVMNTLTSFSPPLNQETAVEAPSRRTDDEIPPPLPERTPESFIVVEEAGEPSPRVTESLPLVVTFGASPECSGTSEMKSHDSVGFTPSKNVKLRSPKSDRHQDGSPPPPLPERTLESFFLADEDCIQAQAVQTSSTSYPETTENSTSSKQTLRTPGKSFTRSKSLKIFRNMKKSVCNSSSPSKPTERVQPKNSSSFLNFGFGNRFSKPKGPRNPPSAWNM

[8] = target: T5, Tyrosine-protein phosphatase non-receptor type 22 (Mus musculus); test: Inhibition of LYP in anti-CD3 and antiCD28 antibody-stimulated C57BL/6 mouse CD4+ splenocytes assessed as increase in TCR signaling-stimulated CD69 expression at 50 uM incubated for 24 hrs (reference value: 29.2%); parameters: scale not given: the % may be the effect or the level left
[9] = target: T5, Tyrosine-protein phosphatase non-receptor type 22 (Mus musculus); test: Inhibition of LYP in anti-CD3 and antiCD28 antibody-stimulated C57BL/6 mouse CD4+ splenocytes assessed as increase in TCR signaling-stimulated CD69 expression at 100 uM incubated for 24 hrs (reference value: 29.2%); parameters: scale not given: the % may be the effect or the level left
[10] = target: T5, Tyrosine-protein phosphatase non-receptor type 22 (Mus musculus); test: Inhibition of LYP-mediated TCR signaling in anti-CD3 and anti-CD4 antibody stimulated mouse Ptpn22+/+ T cells assessed as increase in Lck Y394 phosphorylation at 50 uM by Western blotting; conditions: T-cell
[11] = Inhibition of TCR signaling in anti-CD3 and anti-CD4 antibody stimulated mouse Ptpn22-/- T cells assessed as increase in Lck Y394 phosphorylation at 50 uM by Western blotting; conditions: T-cell
[12] = target: T5, Tyrosine-protein phosphatase non-receptor type 22 (Mus musculus); test: Inhibition of LYP in anti-CD3 and antiCD28 antibody-stimulated C57BL/6 mouse CD8+ splenocytes assessed as increase in TCR signaling-stimulated CD69 expression at 50 uM incubated for 24 hrs (reference value: 5.3%); parameters: scale not given: the % may be the effect or the level left

| Compound | IC50 [1] | IC50 [2] | IC50 [3] | IC50 [4] | other results |
| --- | --- | --- | --- | --- | --- |
| Cc1ccc2cc(C#N)c(SCC(=O)NC3CCCCC3)nc2c1C | 19.8 µM | 8 µM | 21 µM | 45.3 µM |  |
| Cc1ccc2[nH]c(=O)c(C(c3nnnn3C3CCCC3)N3CCC(C)CC3)cc2c1 (centres undefined) | 20.6 µM |  |  |  |  |
| COc1ccc(N2CCN(C(c3cc4cc(C)ccc4[nH]c3=O)c3nnnn3C3CCCC3)CC2)cc1 (centres undefined) | 31.5 µM |  |  |  |  |
| COc1ccc2cc(C#N)c(SCC(=O)Nc3cccc(C)c3C)nc2c1 | 30.5 µM | 15 µM | 18 µM | 60.9 µM |  |
| Cc1ccc2cc(C#N)c(SCC(=O)Nc3ccc4c(c3)OCO4)nc2c1 | 23.3 µM | 12 µM | 36 µM | > 90 µM |  |
| Cc1ccc(NC(=O)CSc2nc3c(C)c(C)ccc3cc2C#N)cc1C | 26.6 µM | 20 µM | 27.5 µM | 53.3 µM |  |
| Cc1ccc2[nH]c(=O)c(C(c3nnnn3C3CCCC3)N3CCCCC3)cc2c1 (centres undefined) | 30.9 µM | > 75 µM |  |  |  |
| Cc1ccc2[nH]c(=O)c(C(c3nnnn3C3CCCC3)N3CCN(C)CC3)cc2c1 (centres undefined) | > 40 µM |  |  |  |  |
| COc1ccc(-n2ncc3c(SCC(=O)N4c5ccccc5CC4C)ncnc32)cc1 (centres undefined) |  |  | > 40 µM | > 90 µM |  |
| CCN1CCN(C(c2cc3cc(C)ccc3[nH]c2=O)c2nnnn2C2CCCC2)CC1 (centres undefined) | > 40 µM |  |  |  |  |
| Cc1ccc2sc(NC(=O)c3sc4ccccc4c3Cl)nc2c1 | 29.5 µM | 8 µM | 14 µM | > 90 µM |  |
| Cc1ccc2[nH]c(=O)c(C(c3nnnn3C3CCCC3)N3CCN(c4ccc(F)cc4)CC3)cc2c1 (centres undefined) | 30.5 µM |  |  |  |  |
| COc1ccccc1N1CCN(C(c2cc3cc(C)ccc3nc2O)c2nnnn2C2CCCC2)CC1 (centres undefined) | > 40 µM |  |  |  |  |
| Cc1ccc2[nH]c(=O)c(C(c3nnnn3C3CCCC3)N3CCN(Cc4ccccc4)CC3)cc2c1 (centres undefined) | > 40 µM |  |  |  |  |
| Cc1ccc2[nH]c(=O)c(C(c3nnnn3C(C)C)N3CCCC4(CCCCC4)C3)cc2c1 (centres undefined) | 21.2 µM |  |  |  |  |
| Cc1ccc2[nH]c(=O)c(C(c3nnnn3C3CCCC3)N3CCN(c4ccccc4)CC3)cc2c1 (centres undefined) | 30.7 µM |  |  |  |  |
| Cc1ccc2[nH]c(=O)c(C(c3nnnn3C3CCCC3)N(Cc3ccccc3)Cc3ccccc3)cc2c1 (centres undefined) | 13.3 µM |  |  |  |  |
| Cc1ccc2[nH]c(=O)c(C(c3nnnn3-c3ccccc3)N3CCCC4(CCCCC4)C3)cc2c1 (centres undefined) | 11.2 µM |  |  |  |  |
| CCOc1ccc(NC(=O)CSc2nc3c(C)cc(C)cc3cc2C#N)cc1 | 28.1 µM | 16 µM | 16 µM | > 90 µM |  |
| Cc1cccc2cc(C#N)c(SCC(=O)Nc3cccc(Cl)c3)nc12 | 27.2 µM | 22 µM | 28 µM | > 90 µM |  |
| Cc1ccc2[nH]c(=O)c(C(c3nnnn3C3CCCC3)N3CCN(c4nc5ccccc5s4)CC3)cc2c1 (centres undefined) | 30 µM |  |  |  |  |
| Cc1ccc2[nH]c(=O)c(C(c3nnnn3C3CCCC3)N3CCN(c4ccc(O)cc4)CC3)cc2c1 (centres undefined) | > 40 µM |  |  |  |  |
| Cc1ccc2[nH]c(=O)c(C(c3nnnn3C3CCCC3)N3CCN(C4CCCCC4)CC3)cc2c1 (centres undefined) | > 40 µM |  |  |  |  |
| Cc1ccc2[nH]c(=O)c(C(c3nnnn3C3CCCC3)N3CCN(C(c4ccccc4)c4ccccc4)CC3)cc2c1 (centres undefined) |  |  |  |  | Ki [5]: 21.3 µM; Ki [6]: 11 µM |
| Cc1ccc2[nH]c(=O)c(C(c3nnnn3C3CCCC3)N3CCCC4(CCCCC4)C3)cc2c1 (centres undefined) |  |  |  |  | Activity [7]: 13.7%; Activity [8]: 36.8%; Activity [9]: 38.9%; inhibition [10]: Active; inhibition [11]: inactive; Activity [12]: 12.1% |
